# Laboratory results as given in patent US10947273B2, “Peptides of use in the preventive and curative treatment of alopecia” (Institut Europeen de Biologie Cellulaire, priority 2015, dated 2021).
# Marks after values point to notes of the source that are not given here. The star is where a group is joined. Palmitoyl = CCCCCCCCCCCCCCCC(=O)*
# How the values were obtained:
# VEGF [1] = assay: qPCR (TLDA) VEGF gene expression in HFDPC; type: cell-based, human; settings: peptide 10^−5 M (table title), 24 hours, relative to untreated controls
# Experimental: (§1) RNA was extracted and purified from cell pellets using the RNA XS Kit (Macherey-Nagel). RNA quantification was carried out with a NanoDrop device and sample quality was verified on a Bioanalyzer with RNA 6000 Nano chips (Agilent). cDNA was synthesized from 300 ng of RNA using the High-Capacity cDNA Reverse Transcription Kit (LifeTech). Quality-control qPCR assays of the cDNA were carried out in microplates on the reference gene, GAPDH, and the SIRT1 gene.
# (§2) Final qPCR experiments were carried out in a 1 μl volume on microfluidic cards (TaqMan Low Density Arrays, LifeTech) and the ABI 7900HT qPCR device. Amplification reactions were performed in duplicate using 1 to 2 ng of cDNA per qPCR reaction and TaqMan Universal Master Mix II (LifeTech).
# (§3) Ct values were obtained using the RQ Manager software. For analyses of qPCR results, Ct values were limited to 35 cycles and the duplicate assays are averaged. The GeneXPro software was used for the studies of stability and of selection of the best reference genes. Expression variations are calculated by the relative quantification method and are expressed as percent increase in expression of the gene of interest relative to the untreated controls.
# VEGF [2] = assay: VEGF secretion by NHDF (ELISA/BioPlex); type: cell-based, human; settings: 10^−7 M, 48h
# Experimental: (§4) NHDF, HFDPC, HHFK and NHEM cells were treated with the peptides studied for 48h. At the end of the treatment, cell supernatants were collected and stored at −80° C. until analysis. The factors of interest secreted into the supernatant were assayed by ELISA® (R&D) or BioPlex® (BioRad®).
# (§5) The results are expressed as percent increase in the concentration of the factor present in the supernatant relative to the untreated control. The intensity of the effect varies as a function of the concentration of the peptide studied and of the cell type treated.
# [3] = system: genes whose expression is reduced in subjects characterized by alopecia; assay: qPCR (TLDA) overall statement, genes involved in alopecia, HFDPC; type: cell-based, human; settings: summary of Table 1
# Experimental: (§6) To study the effect of 9 peptides on these genes, HFDPC were treated for 24 hours with the molecules tested at 10^−7M and 10^−9M concentrations.
# as §1, §2, §3
# [4] = system: normal human dermal fibroblasts (NHDF); assay: CellTiter-Blue proliferation of NHDF; type: cell-based; settings: 10^−5M, 72 hours
# Experimental: Cell proliferation and viability were evaluated in vitro with a kit from Promega, CellTiter-Blue® Cell Viability Assay, for estimating the number of living cells present in the culture. This kit is based on detection, by measurement of fluorescence, of conversion of the dye, resazurin, into a fluorescent product (resorufin) by living and thus metabolically active cells.
# The effect of the peptides tested, (1) and (9), at 4 different concentrations (10^−5, 10^−7, 10^−9 and 10^−11M) was examined on five cell types: immortalized human skin keratinocytes (HaCaT), human hair follicular keratinocytes (HHFK), normal human dermal fibroblasts (NHDF), hair follicle dermal papilla cells (HFDPC), and normal human epidermal melanocytes (NHEM) exposed to the molecule studied for 72 hours.
# [5] = system: microdissected hairs from scalp surgery specimens; assay: Growth of isolated hair ex vivo; type: cell-based, human; settings: for Growth at D 11/D 12 Vs Control: ex vivo isolated hair
# Experimental: This study was carried out on microdissected hairs from scalp surgery specimens from women aged 52 to 71 years. Isolated hairs were kept alive for 11 to 12 days in Williams medium, under conventional cell culture conditions (37° C., 5% CO2). […]
# To evaluate the effect of (1), (6) or (9) on hair growth, the hairs were photographed and their lengths measured using image analysis software. Thus, the growth of the hairs between D0 and D11/D12 could be calculated and compared with that of the untreated control. At the end of the treatments (D11 or D12), the hairs were collected and frozen or fixed for immunolabeling and histological staining.
# BMP2 [6] = assay: qPCR (TLDA) BMP2 gene expression in HFDPC; type: cell-based, human; settings: peptide 10^−9, 24 hours, relative to untreated controls
# Experimental: as §6, §1, §2, §3
# HGF = HGF secretion by HHFK (ELISA/BioPlex); type: cell-based, human; settings: 10^−7 M, 48h
# Experimental: as §4, §5
# KGF = KGF secretion by HFDPC (ELISA/BioPlex); type: cell-based, human; settings: 48h
# Experimental: as §4, §5
# NGF [7] = assay: NGF secretion by HHFK (ELISA/BioPlex); type: cell-based, human; settings: 10^−7 M, 48h
# Experimental: as §4, §5
# NGF [8] = assay: NGF secretion by NHDF (ELISA/BioPlex); type: cell-based, human; settings: 48h
# Experimental: as §4, §5
# BMP2 [9] = assay: BMP2 secretion by HFDPC (ELISA/BioPlex); type: cell-based, human; settings: 10^−5 M, 48h
# Experimental: as §4, §5
# SCF [10] = assay: SCF secretion by NHDF (ELISA/BioPlex); type: cell-based, human; settings: 10^−5 M, 48h
# Experimental: as §4, §5
# IGF1 = assay: qPCR (TLDA) IGF1 gene expression in HFDPC; type: cell-based, human; settings: peptide 10^−9, 24 hours, relative to untreated controls
# Experimental: as §6, §1, §2, §3
# SCF [11] = assay: SCF secretion by HHFK (ELISA/BioPlex); type: cell-based, human; settings: 10^−7 M, 48h
# Experimental: as §4, §5
# VEGF [12] = assay: VEGF secretion by NHEM (ELISA/BioPlex); type: cell-based, human; settings: 10^−7 M, 48h
# Experimental: as §4, §5
# VEGF [13] = assay: VEGF secretion by HFDPC (ELISA/BioPlex); type: cell-based, human; settings: 10^−5 M, 48h
# Experimental: as §4, §5
# PDGF = PDGF secretion by HFDPC (ELISA/BioPlex); type: cell-based, human; settings: 48h
# Experimental: as §4, §5
substance,measurement,setting,value
Palm-Ala-Ala-Pro-Ala-Lys-NH2 (Palmitoyl-AAPAK-NH2; SMILES CCCCCCCCCCCCCCCC(=O)N[C@@H](C)C(=O)N[C@@H](C)C(=O)N1CCC[C@H]1C(=O)N[C@@H](C)C(=O)N[C@@H](CCCCN)C(N)=O) [(6)],% stimulation VEGF gene expression,VEGF [1],24%
same,"VEGF secretion, percent increase relative to untreated control",VEGF [2],VGF 407%
same,stimulation of genes whose expression is reduced in alopecia (in words),[3],stimulate several genes
same,stimulation of proliferation of NHDF,[4],+11%
same,Growth at D 11/D 12 Vs Control,[5]; 10^−7 M,+28%
same,Growth at D 11/D 12 Vs Control,[5]; 10^−9 M,+38%#
same,growth increase compared with minoxidil sulphate,"[5]; peptide 10^−9M, minoxidil sulphate 10^−5 M",higher than that obtained after treatment with minoxidil sulphate
same,hair growth after 11 to 12 days of treatment ex vivo (in words),[5]; summary of Table 3,stimulate hair growth
same,% stimulation BMP2 gene expression,BMP2 [6],116% (10^−9)
same,"HGF secretion, percent increase relative to untreated control",HGF,HGF 52%
same,"KGF secretion, percent increase relative to untreated control",KGF; 10^−5 M,KGF 7%
same,"KGF secretion, percent increase relative to untreated control",KGF; 10^−7 M,KGF 13%
same,"NGF secretion, percent increase relative to untreated control",NGF [7],NGF 10%
same,"NGF secretion, percent increase relative to untreated control",NGF [8]; 10^−5 M,NGF 51%
same,"NGF secretion, percent increase relative to untreated control",NGF [8]; 10^−7 M,NGF 12%
same,"BMP2 secretion, percent increase relative to untreated control",BMP2 [9],BMP2 44%
same,"SCF secretion, percent increase relative to untreated control",SCF [10],SCF 8%
same,% stimulation IGF1 gene expression,IGF1,94% (10^−9)
same,"SCF secretion, percent increase relative to untreated control",SCF [11],SCF 9%
same,"VEGF secretion, percent increase relative to untreated control",VEGF [12],VEGF 15%
same,"VEGF secretion, percent increase relative to untreated control",VEGF [13],VEGF 18%
same,"PDGF secretion, percent increase relative to untreated control",PDGF; 10^−5 M,PDGF 15%
same,"PDGF secretion, percent increase relative to untreated control",PDGF; 10^−7 M,PDGF 38%
